US8563545B2, “Compound useful for the treatment of degenerative and inflammatory diseases” (Galapagos NV, priority 2009, dated 2013)
pIC50: −log10 of the molar value. “And” between values parts separate entries of the source, which are not always exact repeats. Equal entries are not always repeated.

Key:
JAK1 = JAK1 (Homo sapiens (Human), UniProt P23458); assay: JAK1 inhibition assay; type: biochemical
Experimental: (§1) Plates were washed 6 times with 300 μL per well of a 75 mM phosphoric acid solution and the bottom of the plates was sealed. 40 μL/well of Microscint-20 was added, the top of the plates was sealed and readout was performed using the Topcount (Perkin Elmer). Kinase activity was calculated by subtracting counts per minute (cpm) obtained in the presence of a positive control inhibitor (10 μM staurosporine) from cpm obtained in the presence of vehicle. The ability of a test compound to inhibit this activity was determined as:
(§2) Percentage inhibition=((cpm determined for sample with test compound present−cpm determined for sample with positive control inhibitor)divided by(cpm determined in the presence of vehicle−cpm determined for sample with positive control inhibitor))*100.
Dose dilution series were prepared for the compounds enabling the testing of dose-response effects in the JAK1 assay and the calculation of the IC50 for each compound.

JAK2 = JAK2 (Homo sapiens (Human), UniProt O60674); assay: JAK2 inhibition assay; type: biochemical
Experimental: as §1, with “After 90 min at 30° C., reactions were stopped by adding of 25 μL/well of 150 mM phosphoric acid. […] Plates” for “Plates”
as §2
Dose dilution series were prepared for the compounds enabling the testing of dose-response effects in the JAK2 assay and the calculation of the IC50 for each compound.

JAK1, sequence (P23458 850-1154): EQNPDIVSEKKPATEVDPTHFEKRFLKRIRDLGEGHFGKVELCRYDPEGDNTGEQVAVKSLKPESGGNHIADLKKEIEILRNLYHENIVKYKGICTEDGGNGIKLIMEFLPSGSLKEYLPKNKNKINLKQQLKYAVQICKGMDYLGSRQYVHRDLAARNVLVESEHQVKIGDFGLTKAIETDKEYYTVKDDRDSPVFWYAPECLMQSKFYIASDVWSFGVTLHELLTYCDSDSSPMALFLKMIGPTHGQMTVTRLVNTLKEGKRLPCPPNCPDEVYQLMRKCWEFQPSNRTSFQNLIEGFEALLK
JAK2, sequence (O60674 808-1132): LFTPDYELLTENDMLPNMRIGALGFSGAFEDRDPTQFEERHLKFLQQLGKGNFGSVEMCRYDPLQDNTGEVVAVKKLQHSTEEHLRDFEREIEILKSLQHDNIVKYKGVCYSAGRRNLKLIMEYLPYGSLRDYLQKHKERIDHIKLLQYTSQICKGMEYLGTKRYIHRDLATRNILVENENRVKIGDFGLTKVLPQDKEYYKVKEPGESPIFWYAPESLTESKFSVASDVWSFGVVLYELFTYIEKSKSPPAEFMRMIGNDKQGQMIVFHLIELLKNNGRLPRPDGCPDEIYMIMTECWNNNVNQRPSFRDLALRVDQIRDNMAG

Row | Compound | pIC50 (JAK1) | pIC50 (JAK2)
1 | O=C(Nc1nc2cccc(-c3ccc(N4CCOCC4)nc3)n2n1)C1CC1 [Compound 4, N-(5-(6-morpholinopyridin-3-yl)-[1,2,4]triazolo[1,5-a]pyridin-2-yl)cyclopropanecarboxamide] | 5.99 | –
2 | O=C(Nc1nc2cccc(-c3ccc(N4CCOCC4)cc3)n2n1)C1CC1 [Compound 5, N-(5-(4-morpholinophenyl)-[1,2,4]triazolo[1,5-a]pyridin-2-yl)cyclopropanecarboxamide] | 5.84 | 5.75
3 | CN1CCN(Cc2ccc(-c3cccc4nc(NC(=O)C5CC5)nn34)cc2)CC1 [Compound 6, N-(5-(4-((4-methylpiperazin-1-yl)methyl)phenyl)-[1,2,4]triazolo [1,5-a]pyridin-2-yl) cyclopropanecarboxamide] | 5.46 | 5.29
4 | O=C(Nc1nc2cccc(-c3ccc(CN4CCCCC4)cc3)n2n1)C1CC1 [Compound 7, N-(5-(4-(piperidin-1-ylmethyl)phenyl)-[1,2,4]triazolo[1,5-a]pyridin-2-yl)cyclopropanecarboxamide] | 6.30 | 5.19

These reach a higher pIC50 (JAK1). Values come first.

Row | pIC50 (JAK1) | pIC50 (JAK2) | Compound
5 | 6.54 | – | O=C(Nc1nc2cccc(-c3cccc(CN4CCOCC4)c3)n2n1)C1CC1 [Compound 3, N-(5-(3-(morpholinomethyl)phenyl)-[1,2,4]triazolo[1,5-a]pyridin-2-yl)cyclopropanecarboxamide]
6 | 6.36 | 5.11 and 5.87 | NC(=O)C1CCN(Cc2ccc(-c3cccc4nc(NC(=O)C5CC5)nn34)cc2)CC1 [Compound 8]
7 | 6.48 | 6.07 | CC(=O)N1CCN(Cc2ccc(-c3cccc4nc(NC(=O)C5CC5)nn34)cc2)CC1 [Compound 9, N-(5-(4-((4-acetoylpiperazin-1-yl)methyl)phenyl)-[1,2,4]triazolo[1,5-a]pyridin-2-yl)cyclopropanecarboxamide]
